The values below are quoted from earlier work in US20220370535A1, “ANTIVIRAL ESSENTIAL OIL COMPOSITIONS” (priority 2020, published 2022).

One series has as its system SARS-CoV-2. The following applies: inhibition of the virus in cell-based assay.
The next series deals with SARS-CoV-2, Mpro (Severe acute respiratory syndrome coronavirus 2, UniProt P0DTD1). Conditions: nelfinavir, pitavastatin, perampanel, praziquantel compared.

For orientation: EC50 means the midpoint of the concentration-response curve. `CCN(CC)CCCC(C)Nc1ccnc2cc(Cl)ccc12` (centres unmarked) [chloroquine]: in the series on SARS-CoV-2, the EC50 was 1130 nM.

On to `Cc1c(O)cccc1C(=O)N[C@@H](CSc1ccccc1)[C@H](O)CN1C[C@H]2CCCC[C@H]2C[C@H]1C(=O)NC(C)(C)C` [nelfinavir], for which the “inhibitor ranking among 4 tested drugs” value on SARS-CoV-2, Mpro was “most potential inhibitor”.
